# Laboratory results: article PMC12529149, “Chemical and Antiplasmodial Investigations on Carapa-Derived Gedunin Derivatives and Semisynthetic 6- and 7‑Substituted Gedunin Analogues from the Brazilian Amazon” (ACS Omega, 2025)
# Where “and” joins values, the source holds several entries; their conditions need not be identical. Equal values may be shown once. Where a name gives a salt, the structure may show the parent alone. Read-outs that look alike come from different tables or passages of the source.
# Assays:
# [1] = tested on: K1 strain of Plasmodium falciparum; experiment: In vitro susceptibility assay (microtest), P. falciparum K1 growth inhibition; type: cell-based
# Procedure: In vitro culture of the K1 strain of P. falciparum (MRA-159, MR4, ATCC, Manassas, Virginia, USA) proceeded following an established method with modifications. Briefly, this method involved the growth of parasites in human type A+ red blood cells and RPMI 1640 medium supplemented with 10% type A+ human plasma at 37 °C under an atmosphere of 5% O2, 5% CO2, and 90% N2.
# As initial condition for the susceptibility assay, cultures were synchronized by treatment with 5% D-sorbitol, which provided young trophozoites (ring stages). Performance of the microtest followed a previously described procedure with modifications. Compounds were dissolved in DMSO with the aid of an ultrasound bath to provided stock solutions. […] These diluted samples were evaluated in duplicate in a 96-well test plate. A suspension of parasitized red blood cells (pRBCs) at 2% hematocrit and 1% parasitemia was added to each well. Microplate incubation proceeded for 48 h at 37 °C under the same atmosphere used for parasite culture in two independent experiments conducted on different days. Control wells contained chloroquine (0.003–2.5 μg/mL) and quinine (0.003–2.5 μg/mL). Six (6) control (blank) wells were prepared with pRBCs suspension. Six cosolvent control wells were prepared with 1% DMSO and pRBCs suspension. An average of these 12 controls defined drug-free (untreated) growth. After the incubation period, thin blood smears of the contents of each well were prepared on microscope slides. Optical microscopy was used to analyze the blood smears and establish the parasitemia of each well. Interpolation of the nonlinear curve using GraphPad Prism permitted the calculation of estimates of the sample concentrations able to inhibit 50% of parasite growth (IC50) compared to drug-free controls.
# MRC-5 human fibroblasts = experiment: Cytotoxicity/cell viability assay (Alamar blue); type: cell-based; conditions: read-out: fibroblasts IC50
# Procedure: Medical Research Council cell strain 5 (MRC-5) human fetal fibroblasts were cultivated in Dulbecco′s modified Eagle’s medium (DMEM) supplemented with 10% bovine fetal serum and 1% antibiotic at 37 °C under an atmosphere of 5% CO2. Cell viability assessment relied on the Alamar blue method. […] Doxorubicin at concentrations of 0.312, 0.625, 1.25, 2.50, 5.00, 10.0, and 20.0 μM was used as a positive control for cell death. The negative control wells received DMSO (sample diluent) at 0.1%. In preparation for the assay, this method involved plating 0.5 × 10^4 cells/well on 96 well test plates and incubating for 24 h under the same conditions used for cell culture. This initial 24 h period was necessary for cell adhesion. The assay consisted of triplicate addition of diluted samples and controls to wells followed by 48 h of incubation. For quantification of viable cells, 10 μL of 0.4% Alamar blue (Sigma-Aldrich)–which works out to an in-well concentration of 0.02%–were added to each well 3 h before the end of the treatment. Alamar blue was allowed to react for 3 h followed by quantification of the optical density (OD) of each well at an excitation wavelength of 465 nm and emission wavelength of 540 nm using an ELISA plate reader (DTX-800, Beckman Coulter). Comparison of individual sample viability OD to that of controls (blanks) afforded the cell viability. Interpolation of the nonlinear curve using GraphPad Prism software permitted the calculation of estimates of the sample IC50 values compared to drug-free controls.
# [2] = tested on: P. falciparum K1 strain vs MRC-5 human fibroblasts; experiment: Selectivity index, IC50 (human fibroblasts) ÷ IC50 (P. falciparum); type: cell-based, Plasmodium falciparum
# Excerpt: Calculation of the selectivity index (SI) using the following formula afforded the relative toxicity of each sample to human fibroblasts and to P. falciparum blood stages: SI = IC50 (human fibroblasts) ÷ IC50 (P. falciparum).
# P. falciparum K1 strain = tested on: P. falciparum K1 strain; set-up: method as in earlier work; conditions: ref previous reports incl. authors' earlier work (numbers not shown); cited from earlier work
# [3] = tested on: P. falciparum FCR3 strain; set-up: method as in literature (numbers not shown); conditions: ref literature (numbers not shown); cited from earlier work
# P. falciparum = tested on: P. falciparum; set-up: method as in literature (number not shown); conditions: strain not stated, ref literature (number not shown), cited from earlier work
# P. falciparum W2 strain = tested on: P. falciparum W2 strain; set-up: method as in literature (numbers not shown); conditions: ref literature (numbers not shown); cited from earlier work
# P. falciparum D6 strain = tested on: P. falciparum D6 strain; set-up: method as in literature (numbers not shown); conditions: ref literature (numbers not shown); cited from earlier work
# Plasmodium berghei = conditions: oral, 50 mg/kg/day together with dillapiole 25 mg/kg/day (binary treatment), mice; ref literature (numbers not shown); cited from earlier work
# [4] = set-up: method as in literature (number not shown); conditions: low pH similar to mouse and human stomachs; ref literature (number not shown); cited from earlier work
# [5] = tested on: variety of P. falciparum strains; conditions: cited from earlier work
# [6] = tested on: mouse mammary carcinoma (FM3A) cell cultures; set-up: method as in literature (number not shown); conditions: ref literature (number not shown); cited from earlier work
# [7] = Plasmodium falciparum, K1, 48 h, K1 strain, 48 h, CI95 in brackets, read-out: P. falciparum IC50 (CI95)
# [8] = MRC5, MRC-5, tested at 50 μg/mL for 48 h
# [9] = Plasmodium falciparum, K1, 48 h, read-out: P. falciparum IC50 (CI95), K1 strain, 48 h, CI95 in brackets
Compound,"IC50 [1, 7]",IC50 (MRC-5 human fibroblasts; [8]),selectivity index (SI) [2],other results
"CC1(C)C(=O)C=C[C@]2(C)[C@H]3CC[C@@]4(C)[C@H](c5ccoc5)OC(=O)[C@H]5O[C@]54[C@]3(C)[C@H](O)[C@H](O)[C@@H]12 [compound 10, 7-deacetyl-6α-hydroxygedunin]",2.8 µg/mL and 6.1 µM,> 100 µM,>16,IC50 (P. falciparum K1 strain): 5 µM
"CCCC(=O)O[C@@H]1C[C@H]2C(C)(C)C(=O)C=C[C@]2(C)[C@H]2CC[C@@]3(C)[C@H](c4ccoc4)OC(=O)[C@H]4O[C@]43[C@@]21C [compound 6, 7-deacetyl-7-butanoylgedunin]",–,–,>21,"IC50 [1, 9]: 2.4 µg/mL and 4.7 µM; IC50 (MRC-5 human fibroblasts; MRC5, 48 h): > 98 µM"
"CC(=O)O[C@@H]1[C@H](O)[C@H]2C(C)(C)C(=O)C=C[C@]2(C)[C@H]2CC[C@@]3(C)[C@H](c4ccoc4)OC(=O)[C@H]4O[C@]43[C@]12C [compound 11, 6α-hydroxygedunin]",2.2 µg/mL and 4.4 µM,> 110 µM,>26,IC50 [3]: 90 µM
"CCCCCCC(=O)O[C@H]1[C@@H](O)[C@]2(C)[C@H](CC[C@@]3(C)[C@H](c4ccoc4)OC(=O)[C@H]4O[C@@]423)[C@@]2(C)C=CC(=O)C(C)(C)[C@H]12 [compound 15, 7-deacetyl-6α-heptanoyloxygedunin]",5.4 µg/mL and 9.4 µM,> 88 µM,>9.4,–
"CC(=O)O[C@@H]1C[C@H]2C(C)(C)C(=O)C=C[C@]2(C)[C@H]2CC[C@@]3(C)[C@H](c4ccoc4)OC(=O)[C@H]4O[C@]43[C@@]21C (single isomer, unassigned) [(−)-gedunin, reference compound]",–,–,–,"IC50 (P. falciparum; 48 h, read-out: IC50 after 48 h): 1 µM; IC50 (P. falciparum; 96 h, read-out: IC50 after 96 h): 0.3 µM; IC50 (P. falciparum W2 strain): 0.041 to 0.65 µM; IC50 (P. falciparum D6 strain): 0.081 to 0.63 µM"
7-deacetyl-7α-methoxygedunin [reference compound],–,–,–,"IC50 (P. falciparum; read-out: IC50, P. falciparum in vitro): 1.6 to 1.7 µM; suppression of P. berghei vs untreated controls (Plasmodium berghei): 68–81%; stability at low pH [4]: good stability at low pH"
"CCN(CC)CCCC(C)Nc1ccnc2cc(Cl)ccc12 (stereo not shown) [chloroquine diphosphate, reference compound]",–,–,–,"IC50 ([1]; Plasmodium falciparum, K1, 48 h, read-out: P. falciparum IC50 (CI95)): 0.18 µg/mL and 350 nM"
"CCCC(=O)O[C@H]1[C@@H](O)[C@]2(C)[C@H](CC[C@@]3(C)[C@H](c4ccoc4)OC(=O)[C@H]4O[C@@]423)[C@@]2(C)C=CC(=O)C(C)(C)[C@H]12 [compound 13, 7-deacetyl-6α-butanoyloxygedunin]",3.7 µg/mL and 7.1 µM,> 100 µM,>15,–
"CC(=O)O[C@H]1C[C@H]2C(C)(C)C(=O)C=C[C@]2(C)[C@H]2CC[C@@]3(C)[C@H](c4ccoc4)OC(=O)[C@H]4O[C@]43[C@]12C [compound 5, 7-epi-gedunin]",1.1 µg/mL and 2.3 µM,> 100 µM,>45,–
"CC1(C)C(=O)C=C[C@]2(C)[C@H]3CC[C@@]4(C)[C@H](c5ccoc5)OC(=O)[C@H]5O[C@]54[C@]3(C)[C@H](O)C[C@@H]12 [compound 2, 7-deacetylgedunin]",–,–,>8.5,"IC50 [1, 9]: 5.9 µg/mL; IC50 ([1]; read-out: P. falciparum IC50 (CI95), K1 strain, 48 h, CI95 in brackets): 13 µM; IC50 (MRC-5 human fibroblasts; MRC5, 48 h): > 110 µM; IC50 ([5]; variety of strains (3D7, D6, D10, W2, INDO), ref several previous reports (numbers not shown), read-out: IC50, in vitro growth): 1.3 to 5.9 µM; IC50 (P. falciparum K1 strain): 3.1 µM; stability at low pH [4]: react at low pH"
"CC1(C)C(=O)C=C[C@]2(C)[C@H]3CC[C@@]4(C)[C@H](c5ccoc5)OC(=O)[C@H]5O[C@]54[C@]3(C)C(=O)C[C@@H]12 [compound 1, 7-Deacetyl-7-oxogedunin]",–,–,–,"IC50 ([5]; FCR3 and INDO strains, ref previous reports (numbers not shown), read-out: IC50): 2.5 to 7.5 µM; IC50 (P. falciparum W2 strain): > 20.7 µM; IC50 (P. falciparum D6 strain): > 20.7 µM; toxicity to FM3A cells [6]: toxic"
CC(=O)O[C@H]1[C@@H](OC(C)=O)[C@]2(C)[C@H](CC[C@@]3(C)[C@H](c4ccoc4)OC(=O)[C@H]4O[C@@]423)[C@@]2(C)C=CC(=O)C(C)(C)[C@H]12 [6α-acetoxygedunin],–,–,–,IC50 [3]: 2.8 µM; toxicity to FM3A cells [6]: toxic
"CC(=O)O[C@H]1[C@@H](O)[C@]2(C)[C@H](CC[C@@]3(C)[C@H](c4ccoc4)OC(=O)[C@H]4O[C@@]423)[C@@]2(C)C=CC(=O)C(C)(C)[C@H]12 [6α-acetoxy-7-deacetylgedunin, reference compound]",–,–,–,IC50 [3]: 4 µM
"CC1(C)C(=O)C=C[C@]2(C)[C@H]3CC[C@@]4(C)[C@H](c5ccoc5)OC(=O)[C@H]5O[C@]54[C@]3(C)[C@H](O)[C@H](OC(=O)c3ccccc3)[C@@H]12 [compound 14, 7-deacetyl-6α-benzoxygedunin]",5.1 µg/mL and 10 µM,> 110 µM,>11,–
"CCCCC(=O)O[C@H]1C[C@H]2C(C)(C)C(=O)C=C[C@]2(C)[C@H]2CC[C@@]3(C)[C@H](c4ccoc4)OC(=O)[C@H]4O[C@]43[C@]12C [compound 9, 7-deacetyl-7-pentanoyl-7-epi-gedunin]",3.7 µg/mL and 7 µM,> 95 µM,>14,–
"CCCCC(=O)O[C@@H]1C[C@H]2C(C)(C)C(=O)C=C[C@]2(C)[C@H]2CC[C@@]3(C)[C@H](c4ccoc4)OC(=O)[C@H]4O[C@]43[C@@]21C [compound 8, 7-deacetyl-7-pentanoylgedunin]",4.2 µg/mL and 8 µM,> 95 µM,>12,–
"CC1(C)C(=O)C=C[C@]2(C)[C@H]3CC[C@@]4(C)[C@H](c5ccoc5)OC(=O)[C@H]5O[C@]54[C@]3(C)[C@@H](O)C[C@@H]12 [compound 3, 7-deacetyl-7-epi-gedunin]",–,–,>15,"IC50 [1, 9]: 3.4 µg/mL and 7.8 µM; IC50 (MRC-5 human fibroblasts; MRC5, 48 h): > 110 µM"
"CC1(C)[C@H](O)CC[C@]2(C)[C@H]3CC[C@@]4(C)[C@H](c5ccoc5)OC(=O)[C@H]5O[C@]54[C@]3(C)[C@@H](O)C[C@@H]12 [compound 16, 7-deacetyl-3-deoxo-1,2-dihydro-3α-hydroxy-7-epi-gedunin]",16 µg/mL,> 110 µM,>3.2,–
"CCCC(=O)O[C@H]1C[C@H]2C(C)(C)C(=O)C=C[C@]2(C)[C@H]2CC[C@@]3(C)[C@H](c4ccoc4)OC(=O)[C@H]4O[C@]43[C@]12C [compound 7, 7-deacetyl-7-butanoyl-7-epi-gedunin]",–,–,>21,"IC50 [1, 9]: 2.4 µg/mL and 4.7 µM; IC50 (MRC-5 human fibroblasts; MRC5, 48 h): > 98 µM"
"C=C[C@H]1C[N@@]2CC[C@H]1C[C@H]2[C@H](O)c1ccnc2ccc(OC)cc12 [quinine hydrochloride, reference compound]",0.14 µg/mL and 350 nM,–,–,–
